Assays:
K562 = assay: Cytotoxicity against human K562 cells after 72 hrs by MTT assay; type: functional, cell-based; conditions: K562, 72 h
[1] = Cytotoxicity against human HL60 cells after 72 hrs by MTT assay; type: functional, cell-based; conditions: HL-60, 72 h
Jurkat = assay: Cytotoxicity against human Jurkat cells after 72 hrs by MTT assay; type: functional, cell-based
Raji [2] = assay: Cytotoxicity against human Raji cells after 72 hrs by MTT assay; type: functional, cell-based
MCF7 = assay: Cytotoxicity against human MCF7 cells after 72 hrs by MTT assay; type: functional, cell-based; conditions: MCF7, 72 h
MDA-MB-231 = assay: Cytotoxicity against human MDA-MB-231 cells after 72 hrs by MTT assay; type: functional, cell-based; conditions: MDA-MB-231, 72 h
HeLa = assay: Cytotoxicity against human HeLa cells after 72 hrs by MTT assay; type: functional, cell-based
MRC5 = assay: Cytotoxicity against human MRC5 cells after 72 hrs by MTT assay; type: cell-based; conditions: MRC5, 72 h
HL-60 = assay: Potency index, ratio of IC50 for doxorubicin to IC50 for test compound against human HL60 cells after 72 hrs by MTT assay; type: functional
Raji [3] = assay: Potency index, ratio of IC50 for doxorubicin to IC50 for test compound against human Raji cells after 72 hrs by MTT assay; type: functional

Compound	IC50 (K562) [µM]	IC50 [1] [nM]	IC50 (Jurkat) [µM]	IC50 (Raji [2]) [µM]	IC50 (MCF7) [µM]	IC50 (MDA-MB-231) [µM]	IC50 (HeLa) [µM]	IC50 (MRC5) [µM]	Ratio IC50 (HL-60)	Ratio IC50 (Raji [3])
COc1ccc(/C=C/C(=O)O[C@@H]2[C@H]3OC(=O)C[C@H]3O[C@@H]2[C@H](O)c2ccccc2)cc1	4.21	50200	13.4	5.69	11.1	> 100	18.6	> 100	–	–
O=C(/C=C/c1ccc([N+](=O)[O-])cc1)O[C@@H]1[C@H]2OC(=O)C[C@H]2O[C@@H]1[C@H](O)c1ccccc1	14.6	48200	44.7	8.23	> 100	5.36	21.4	> 100	–	–
O=C(/C=C/c1ccc(F)cc1)O[C@@H]1[C@H]2OC(=O)C[C@H]2O[C@@H]1[C@H](O)c1ccccc1	10.2	11500	17.6	11.1	14.9	25.7	29.9	> 100	–	–
COc1ccc(/C=C/C(=O)O[C@H](c2ccccc2)[C@H]2O[C@@H]3CC(=O)O[C@@H]3[C@H]2O)cc1	3.25	41400	42.3	4.37	12.3	> 100	24.9	> 100	–	–
O=C(/C=C/c1ccc([N+](=O)[O-])cc1)O[C@H](c1ccccc1)[C@H]1O[C@@H]2CC(=O)O[C@@H]2[C@H]1O	2.25	14300	10.5	16.4	5.23	33.4	35.7	> 100	–	–
O=C(/C=C/c1ccc(F)cc1)O[C@H](c1ccccc1)[C@H]1O[C@@H]2CC(=O)O[C@@H]2[C@H]1O	4.58	9450	18.1	14.5	18.7	29.6	24.1	> 100	–	–
O=C(/C=C/c1ccccc1)O[C@@H]1[C@H]2OC(=O)C[C@H]2O[C@@H]1[C@@H](O)c1ccccc1	3.33	20	0.87	14.5	0.22	8.64	2.47	> 100	46	–
COc1ccc(/C=C/C(=O)O[C@@H]2[C@H]3OC(=O)C[C@H]3O[C@@H]2[C@@H](O)c2ccccc2)cc1	2.63	110	1.12	2.34	20.2	7.32	3.21	> 100	–	–
O=C(/C=C/c1ccc([N+](=O)[O-])cc1)O[C@@H]1[C@H]2OC(=O)C[C@H]2O[C@@H]1[C@@H](O)c1ccccc1	1.12	360	3.52	1.02	56.2	2.64	1.66	> 100	–	3
O=C(/C=C/c1ccc(F)cc1)O[C@@H]1[C@H]2OC(=O)C[C@H]2O[C@@H]1[C@@H](O)c1ccccc1	0.85	2110	0.69	1.74	84.5	1.32	4.12	> 100	–	–
O=C(/C=C/c1ccccc1)O[C@@H](c1ccccc1)[C@H]1O[C@@H]2CC(=O)O[C@@H]2[C@H]1O	2.01	1340	1.03	1.31	9.47	3.37	0.69	> 100	–	–
COc1ccc(/C=C/C(=O)O[C@@H](c2ccccc2)[C@H]2O[C@@H]3CC(=O)O[C@@H]3[C@H]2O)cc1	11.5	8790	18.6	8.45	9.64	28.6	11	> 100	–	–
O=C(/C=C/c1ccc([N+](=O)[O-])cc1)O[C@@H](c1ccccc1)[C@H]1O[C@@H]2CC(=O)O[C@@H]2[C@H]1O	14.2	10500	24.6	4.36	4.15	64.2	4.01	> 100	–	–
O=C(/C=C/c1ccc(F)cc1)O[C@@H](c1ccccc1)[C@H]1O[C@@H]2CC(=O)O[C@@H]2[C@H]1O	15.7	11000	19.6	12.7	5.36	31.6	4.36	> 100	–	–
O=C(/C=C/c1ccccc1)O[C@@H]1[C@H]2OC(=O)C[C@H]2O[C@@H]1[C@H](OC(=O)/C=C/c1ccccc1)c1ccccc1	21.4	3330	2.65	11	> 100	> 100	12.2	48.6	–	–
O=C(/C=C/c1ccccc1)O[C@@H]1[C@H]2OC(=O)C[C@H]2O[C@@H]1[C@@H](OC(=O)/C=C/c1ccccc1)c1ccccc1	2.15	150	0.31	10.2	1.64	6.69	1.45	> 100	–	–
O=C(/C=C/c1ccccc1)OC1C2OC(=O)CC2O[C@@H]1Cc1ccccc1 (single isomer, unassigned)	4.67	2210	0.29	0.88	58.6	4.32	1.25	> 100	–	–
COc1ccc(/C=C/C(=O)OC2C3OC(=O)CC3O[C@@H]2Cc2ccccc2)cc1 (single isomer, unassigned)	1.02	270	0.84	3.58	61	4.34	0.94	> 100	–	–
O=C(/C=C/c1ccc([N+](=O)[O-])cc1)OC1C2OC(=O)CC2O[C@@H]1Cc1ccccc1 (single isomer, unassigned)	0.98	140	3.74	2.69	23.2	5.32	0.87	> 100	–	–
O=C(/C=C/c1ccc(F)cc1)OC1C2OC(=O)CC2O[C@@H]1Cc1ccccc1 (single isomer, unassigned)	0.25	1020	2.63	1.52	29	8.22	1.02	> 100	–	–
O=C(/C=C/c1ccccc1)O[C@@H]1[C@H]([C@@H](O)c2ccccc2)O[C@H]2CC(=O)O[C@@H]12 [(+)-CRASSALACTONE B]	0.78	2540	0.12	14.6	0.85	5.32	0.98	> 100	–	–
O=C(/C=C/c1ccccc1)O[C@H](c1ccccc1)[C@H]1O[C@@H]2CC(=O)O[C@@H]2[C@H]1O [(+)-CRASSALACTONE C]	–	> 100000	–	–	7.34	88	–	> 100	–	–
COc1cccc2c1C(=O)c1c(O)c3c(c(O)c1C2=O)C[C@@](O)(C(=O)CO)C[C@@H]3O[C@H]1C[C@H](N)[C@H](O)[C@H](C)O1 [DOXORUBICIN]	–	920	–	–	–	–	0.065	–	–	–

Source: ChEMBL document CHEMBL3352105, “Design, synthesis and SAR analysis of antitumour styryl lactones related to (+)-crassalactones B and C” (Eur J Med Chem, 2014)
